# Assay results as given in ChEMBL document CHEMBL1121592, “Mutagenicity of substituted (o-phenylenediamine)platinum dichloride in the Ames test. A quantitative structure-activity analysis” (J Med Chem, 1980).
# Tested on: Salmonella typhimurium
# Experiment: Compound was tested in Ames test using Salmonella Typhimurium (TA-92). C is the molar concentration of compound producing 30 mutations/(10e 8) bacteria delivered
# Format: functional, organism-based
# Settings: Salmonella enterica subsp. enterica serovar Typhimurium
row,Substance,Log 1/C
1,"0-Hexyl-1,3-diamine-platinum 2,2-dichloride",4.22
2,"0-Phenylene-1,3-diamine-platinum 2,2-dichloride-3,4,5-trichloro",7.73
3,"0-Phenylene-1,3-diamine-platinum 2,2-dichloride-4,5-dichloro",6.89
4,"0-Phenylene-1,3-diamine-platinum 2,2-dichloride-4-benzoyl",7.52
5,"0-Phenylene-1,3-diamine-platinum 2,2-dichloride-4-carboxylic acid methyl ester",7
6,"0-Phenylene-1,3-diamine-platinum 2,2-dichloride-4-ethoxy",5.6
7,"0-Phenylene-1,3-diamine-platinum 2,2-dichloride-4-methoxy",5.65
8,"0-Phenylene-1,3-diamine-platinum 2,2-dichloride-4-methyl",5.6
9,"0-Phenylene-1,3-diamine-platinum 2,2-dichloride-4-nitro",8.65
10,"4,5-benzoPhenylene-1,3-diamine-platinum 2,2-dichloride-",5.92
11,CISPLATIN,4.52
12,"Phenylene-1,3-diamine-platinum 2,2-dichloride-4,5-dimethoxy",4.64
